Measurements from patent publication US10323038B2, “Pyrazole compounds and methods of making and using same” (ABIDE THERAPEUTICS, INC., priority 2015, dated 2019).

Key:
MAGL = MAGL (Mus musculus (Mouse), UniProt O35678); assay: In vitro competitive activity-based protein profiling, MAGL (mouse); type: biochemical; conditions: for inhibition at 1 µM: read-out: MAGL % inh. 1 μM (mouse)
Method in brief: (§1)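 Competitive ABPP; proteome 1.0 mg/mL total protein; mouse = brain membranes or cell lysates, human = prefrontal cortex or cell membranes. Inhibitor preinc 30 min, 37° C; FP-Rh/HT-01 (50 μM DMSO stock) 30 min, 37° C; SDS-PAGE, in-gel fluorescence of MAGL/FAAH bands.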

FAAH = FAAH (Mus musculus (Mouse), UniProt O08914); assay: In vitro competitive activity-based protein profiling, FAAH (mouse); type: biochemical; conditions: for inhibition at 1 µM: read-out: FAAH % inh. 1 μM (mouse)
Chain of FAAH (O08914 whole entry): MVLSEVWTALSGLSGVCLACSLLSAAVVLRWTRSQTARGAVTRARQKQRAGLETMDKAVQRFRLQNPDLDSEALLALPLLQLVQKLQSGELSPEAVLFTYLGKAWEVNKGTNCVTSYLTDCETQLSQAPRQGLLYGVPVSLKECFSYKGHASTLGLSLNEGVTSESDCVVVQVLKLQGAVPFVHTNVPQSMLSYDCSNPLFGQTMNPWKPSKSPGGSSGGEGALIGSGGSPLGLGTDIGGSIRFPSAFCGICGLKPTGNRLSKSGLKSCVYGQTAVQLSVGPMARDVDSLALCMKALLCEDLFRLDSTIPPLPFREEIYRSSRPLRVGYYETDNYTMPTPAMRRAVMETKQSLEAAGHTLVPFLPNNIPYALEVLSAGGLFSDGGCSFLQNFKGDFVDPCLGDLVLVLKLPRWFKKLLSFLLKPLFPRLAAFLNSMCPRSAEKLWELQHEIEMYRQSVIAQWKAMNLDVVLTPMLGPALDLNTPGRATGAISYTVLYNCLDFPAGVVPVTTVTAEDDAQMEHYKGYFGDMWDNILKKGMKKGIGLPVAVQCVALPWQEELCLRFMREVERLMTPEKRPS
Method in brief: as §1

Chain of MAGL (O35678 whole entry): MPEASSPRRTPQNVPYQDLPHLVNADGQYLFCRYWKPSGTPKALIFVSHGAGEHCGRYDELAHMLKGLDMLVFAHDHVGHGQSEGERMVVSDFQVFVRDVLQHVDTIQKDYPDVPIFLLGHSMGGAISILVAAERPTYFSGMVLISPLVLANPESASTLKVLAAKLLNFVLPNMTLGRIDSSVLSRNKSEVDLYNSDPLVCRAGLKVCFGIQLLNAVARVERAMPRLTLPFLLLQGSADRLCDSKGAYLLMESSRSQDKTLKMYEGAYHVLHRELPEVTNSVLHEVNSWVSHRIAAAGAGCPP

CC(=O)N(C)c1cnn(C(=O)N2CC3CN(Cc4cccc(F)c4)CC3C2)c1 (stereo not shown) [Example 180, N-(1-(5-(3-fluorobenzyl)octahydropyrrolo[3,4-c]pyrrole-2-carbonyl)-1H-pyrazol-4-yl)-N-methylacetamide]
IC50 (MAGL): 100 to 1000 nM | inhibition at 1 µM (MAGL): 50 to 75% | IC50 (FAAH): 100 to 1000 nM | inhibition at 1 µM (FAAH): ≥ 75%

COc1cccc(CN2CC3CN(C(=O)n4cc(N(C)C(C)=O)cn4)CC3C2)c1 (stereo not shown) [Example 181, N-(1-(5-(3-methoxybenzyl)octahydropyrrolo[3,4-c]pyrrole-2-carbonyl)-1H-pyrazol-4-yl)-N-methylacetamide]
IC50 (MAGL): 1000 to 10000 nM | inhibition at 1 µM (MAGL): 50 to 75% | IC50 (FAAH): 100 to 1000 nM | inhibition at 1 µM (FAAH): ≥ 75%

CC(=O)N(C)c1cnn(C(=O)N2CC3CN(Cc4ccccc4F)CC3C2)c1 (stereo not shown) [Example 182, N-(1-(5-(2-fluorobenzyl)octahydropyrrolo[3,4-c]pyrrole-2-carbonyl)-1H-pyrazol-4-yl)-N-methylacetamide]
IC50 (MAGL): 100 to 1000 nM | inhibition at 1 µM (MAGL): ≥ 75% | IC50 (FAAH): ≤ 100 nM | inhibition at 1 µM (FAAH): ≥ 75%

CC(=O)N(C)c1cnn(C(=O)N2CC3CN(Cc4ccccc4N4CCCC4)CC3C2)c1 (stereo not shown) [Example 184, N-methyl-N-(1-(5-(2-(pyrrolidin-1-yl)benzyl)octahydropyrrolo[3,4-c]pyrrole-2-carbonyl)-1H-pyrazol-4-yl)acetamide]
inhibition at 1 µM (MAGL): ≥ 75% | inhibition at 1 µM (FAAH): 50 to 75%

CC(=O)N(C)c1cnn(C(=O)N2CC3CN(Cc4ccccc4N4CCOCC4)CC3C2)c1 (stereo not shown) [Example 185, N-methyl-N-(1-(5-(2-morpholinobenzyl)octahydropyrrolo[3,4-c]pyrrole-2-carbonyl)-1H-pyrazol-4-yl)acetamide]
inhibition at 1 µM (MAGL): 50 to 75% | inhibition at 1 µM (FAAH): 0 to 25%

CC(=O)N(C)c1cnn(C(=O)N2CCC3(CCN(Cc4ccccc4Cl)C3)CC2)c1 [Example 186, N-(1-(2-(2-chlorobenzyl)-2,8-diazaspiro[4.5]decane-8-carbonyl)-1H-pyrazol-4-yl)-N-methylacetamide]
IC50 (MAGL): ≤ 100 nM | inhibition at 1 µM (MAGL): ≥ 75% | IC50 (FAAH): 100 to 1000 nM | inhibition at 1 µM (FAAH): ≥ 75%

CC(=O)N(C)c1cnn(C(=O)N2CCC3(CCN(Cc4cccc(Cl)c4)C3)CC2)c1 [Example 187, N-(1-(2-(3-chlorobenzyl)-2,8-diazaspiro[4.5]decane-8-carbonyl)-1H-pyrazol-4-yl)-N-methylacetamide]
IC50 (MAGL): 100 to 1000 nM | inhibition at 1 µM (MAGL): ≥ 75% | IC50 (FAAH): 100 to 1000 nM | inhibition at 1 µM (FAAH): ≥ 75%

CC(=O)N(C)c1cnn(C(=O)N2CCC3(CCN(Cc4ccc(Cl)cc4)C3)CC2)c1 [Example 188, N-(1-(2-(4-chlorobenzyl)-2,8-diazaspiro[4.5]decane-8-carbonyl)-1H-pyrazol-4-yl)-N-methylacetamide]
IC50 (MAGL): 100 to 1000 nM | inhibition at 1 µM (MAGL): ≥ 75% | IC50 (FAAH): 100 to 1000 nM | inhibition at 1 µM (FAAH): ≥ 75%

CC(=O)N(C)c1cnn(C(=O)N2CC3CN(Cc4ccc(OCC(=O)N5CCCC5)cc4Cl)CC3C2)c1 (stereo not shown) [Example 189, N-(1-(5-(2-chloro-4-(2-oxo-2-(pyrrolidin-1-yl)ethoxy)benzyl)octahydropyrrolo[3,4-c]pyrrole-2-carbonyl)-1H-pyrazol-4-yl)-N-methylacetamide]
IC50 (MAGL): 1000 to 10000 nM | inhibition at 1 µM (MAGL): ≥ 75% | IC50 (FAAH): 100 to 1000 nM | inhibition at 1 µM (FAAH): 0 to 25%

CC(=O)N(C)c1cnn(C(=O)N2CCN(Cc3cc(N4CCCC4)cc(C(F)(F)F)c3)CC2)c1 [Example 190, N-methyl-N-(1-(4-(3-(pyrrolidin-1-yl)-5-(trifluoromethyl)benzyl)piperazine-1-carbonyl)-1H-pyrazol-4-yl)acetamide]
IC50 (MAGL): ≤ 100 nM | inhibition at 1 µM (MAGL): ≥ 75% | IC50 (FAAH): 1000 to 10000 nM | inhibition at 1 µM (FAAH): 50 to 75%

CC(=O)N(C)c1cnn(C(=O)N2CCN(Cc3ccc(C(F)(F)F)cc3N3CCCC3)CC2)c1 [Example 191, N-methyl-N-(1-(4-(2-(pyrrolidin-1-yl)-4-(trifluoromethyl)benzyl)piperazine-1-carbonyl)-1H-pyrazol-4-yl)acetamide]
IC50 (MAGL): ≤ 100 nM | inhibition at 1 µM (MAGL): ≥ 75% | IC50 (FAAH): 100 to 1000 nM | inhibition at 1 µM (FAAH): 25 to 50%
